Values joined by “and” are separate entries in the source; they are usually repeats but may differ in a detail not shown here. Identical values can stand only once. Like-named read-outs stand apart in the source and are kept apart here. Marks after values point to notes of the source that are not given here.
What was measured:
[1] = In vitro skin permeation of 5%w/v MTG in single solvents (Franz diffusion cells), with infinite dose model fitting; assay type: in vitro ADME, porcine; conditions: for Papp at 48 h, 5 %w/v: pig, read-out: Kp (permeability coefficient) (converted)
Procedure: The in vitro permeation study was performed in triplicate using Franz diffusion cell apparatus with a diffusion area of ~ 0.8 cm^2 and a receptor volume of ~ 3 mL. The porcine skin was thawed at room temperature and cut into an appropriate size before mounting on the Franz diffusion cells. The receptor compartment was filled with PBS containing 0.02%w/v of sodium azide and a selected antioxidant. The Franz diffusion cells were placed into a water bath to maintain the skin temperature at 32 ± 0.5 °C. […] After 48-h permeation studies, the mass balance studies were performed.
Samples were analysed using Shimadzu liquid chromatographic system (Kyoto, Japan) with SPD-20A UV–vis detector set at 254 nm. A reverse phase ZORBAX Eclipse Plus C18 column (Agilent Technologies, 150 × 4.6 mm ID × 3.5 μm) coupled with a C18 guard column (Phenomenex SecurityGuard™, 4 × 3.0 mm ID × 5 μm) was employed as the stationary phase. A gradient elution method with acetonitrile and 0.1%v/v of formic acid as the mobile phase (30:70 to 70:30 (v/v) over 1 min and held until 4 min; then returned to 30:70 (v/v) from 4 to 6 min and held up until 10 min) at a flow rate of 1.2 mL/min was used. The injection volume was set at 100 μL and the total run time was 10 min with a retention time of ~ 4 min.
To estimate the permeation parameters (P1 and P2), the in vitro permeation data were fitted to the infinite dose model (Eq. 1) using non-linear least squares. This infinite dose model was obtained by solving the diffusion equation using Laplace transform, which was subsequently numerically inverted using Weeks method and fitted to in Python 3.13.3 (Python Software Foundation, Wilmington, DE, US).1 Q¯s=J·A/s=P1ACd/ss/P2sinhs/P2
Here, Q¯s is the cumulative amount of drug permeated, J is the permeation flux, A is the permeation area, Cd is the initial concentration, h is the membrane thickness and s is the Laplace variable. The apparent partition and apparent diffusion coefficients, P1 and P2, are related to the h and the diffusion (D) and partition (K) coefficients, as defined in Eq. 2 and Eq. 3 [32]. The goodness of fit was measured based on the coefficient of determination (R^2) and root mean square error (RMSE).2 P1=Kh 3 P2=D/h^2
The permeability coefficient (Kp), steady-state flux (Jss) and lag time (tlag) can then be calculated using Eqs. 4, 5, and 6 [33] with the estimated values of P1 and P2 from the curve fitting.4 Kp=P1P2 5 Jss=KpCd 6 tlag=h^2/6D
Other permeation parameters were determined experimentally, where A was 0.7–0.8 cm^2, h was 0.0586 cm, Cd was 50 mg/mL and the volume of drug loaded was 40 µL.

[2] = 32 °C; cited from earlier work
[3] = beagle dogs; cited from earlier work
[4] = 5%w/v MTG in DMSO, receptor PBS with 0.01%w/v ascorbic acid (DMSO-AA), 48 h
[5] = 5%w/v MTG in DMSO, receptor PBS without ascorbic acid, 48 h
[6] = 5%w/v MTG in Labrasol, receptor PBS with 0.01%w/v ascorbic acid (Labrasol-AA), 48 h
[7] = 5%w/v MTG in Lauroglycol, receptor PBS with 0.01%w/v ascorbic acid (Lauroglycol-AA), 48 h
[8] = 5%w/v MTG in Maisine, receptor PBS with 0.01%w/v ascorbic acid (Maisine-AA), 48 h
[9] = 5%w/v MTG in Maisine, receptor PBS without ascorbic acid, 48 h
[10] = 5%w/v MTG in PG, receptor PBS with 0.01%w/v ascorbic acid (PG-AA), 48 h
[11] = 5%w/v MTG in PG, receptor PBS without ascorbic acid, 48 h
[12] = 5%w/v MTG in Transcutol, receptor PBS with 0.01%w/v ascorbic acid (Transcutol-AA), 48 h
[13] = 5%w/v MTG in Transcutol, receptor PBS without ascorbic acid, 48 h
[14] = 5%w/v in dimethyl sulphoxide and Transcutol, optimised receptor medium (0.01%w/v ascorbic acid in PBS)

CC[C@@H]1CN2CCc3c([nH]c4cccc(OC)c34)[C@@H]2C[C@@H]1/C(=C\OC)C(=O)OC [MTG, mitragynine]
Jss (steady-state flux) [1, 4]: 0.77 ± 0.18 µg/cm^2/h and 0.77 ± 0.18^d µg/cm^2/h | P1 (apparent partition coefficient) [1, 4]: 20.35 ± 8.07 × 10^–4 cm | P2 (apparent diffusion coefficient) [1, 4]: 8.01 ± 1.91 × 10^–3 h^−1 | Permeation (cumulative amount of MTG permeated) [1, 4]: 15.40 ± 2.40 µg/cm^2 | tlag (lag time) [1, 4]: 21.53 ± 4.53 h | Cumulative amount of MTG permeated [1, 5]: 14.40 ± 3.34 μg/cm^2 | Jss (steady-state flux) [1, 5]: 0.52 ± 0.15 µg/cm^2/h | P1 (apparent partition coefficient) [1, 5]: 8.90 ± 5.52 × 10^–4 cm | P2 (apparent diffusion coefficient) [1, 5]: 13.40 ± 4.73 × 10^–3 h^−1 | tlag (lag time) [1, 5]: 13.52 ± 4.70 h | Jss (steady-state flux) [1, 6]: 0.14 ± 0.11 µg/cm^2/h | P1 (apparent partition coefficient) [1, 6]: 6.83 ± 5.64^a × 10^–4 cm | P2 (apparent diffusion coefficient) [1, 6]: 4.33 ± 0.52 × 10^–3 h^−1 | Permeation (cumulative amount of MTG permeated) [1, 6]: 1.53 ± 1.08 µg/cm^2 | tlag (lag time) [1, 6]: 38.85 ± 4.39^e,f h | Permeation (cumulative amount of MTG permeated) ([1]; 5%w/v MTG in Labrasol, receptor PBS without ascorbic acid, 48 h): 1.36 ± 1.45 µg/cm^2 | Jss (steady-state flux) [1, 7]: 0.11 ± 0.07 µg/cm^2/h | P1 (apparent partition coefficient) [1, 7]: 0.65 ± 0.09^a × 10^–4 cm | P2 (apparent diffusion coefficient) [1, 7]: 33.50 ± 18.62^b × 10^–3 h^−1 | Permeation (cumulative amount of MTG permeated) [1, 7]: 3.65 ± 2.40 µg/cm^2 | tlag (lag time) [1, 7]: 6.39 ± 4.02^e h | Permeation (cumulative amount of MTG permeated) ([1]; 5%w/v MTG in Lauroglycol, receptor PBS without ascorbic acid, 48 h): 0.77 ± 0.25 µg/cm^2 | Jss (steady-state flux) [1, 8]: 0.27 ± 0.07 µg/cm^2/h | P1 (apparent partition coefficient) [1, 8]: 2.18 ± 0.48^a × 10^–4 cm | P2 (apparent diffusion coefficient) [1, 8]: 25.90 ± 8.44 × 10^–3 h^−1 | Permeation (cumulative amount of MTG permeated) [1, 8]: 8.39 ± 2.61 µg/cm^2 | tlag (lag time) [1, 8]: 7.05 ± 2.82^e h | Jss (steady-state flux) [1, 9]: 0.10 ± 0.09 µg/cm^2/h | P1 (apparent partition coefficient) [1, 9]: 1.89 ± 1.95 × 10^–4 cm | P2 (apparent diffusion coefficient) [1, 9]: 12.86 ± 5.15 × 10^–3 h^−1 | Permeation (cumulative amount of MTG permeated) [1, 9]: 2.26 ± 1.93 µg/cm^2 | tlag (lag time) [1, 9]: 14.19 ± 4.62 h | Jss (steady-state flux) [1, 10]: 0.33 ± 0.12 µg/cm^2/h | P1 (apparent partition coefficient) [1, 10]: 9.49 ± 3.95 × 10^–4 cm | P2 (apparent diffusion coefficient) [1, 10]: 7.17 ± 0.89 × 10^–3 h^−1 | Permeation (cumulative amount of MTG permeated) [1, 10]: 6.06 ± 2.12 µg/cm^2 and 6.06 ± 2.13 µg/cm^2 | tlag (lag time) [1, 10]: 23.50 ± 2.93 h | Cumulative amount of MTG permeated [1, 11]: 5.24 ± 2.28 μg/cm^2 | Jss (steady-state flux) [1, 11]: 0.48 ± 0.37 µg/cm^2/h | P1 (apparent partition coefficient) [1, 11]: 25.55 ± 25.22 × 10^–4 cm | P2 (apparent diffusion coefficient) [1, 11]: 7.33 ± 6.13 × 10^–3 h^−1 | tlag (lag time) [1, 11]: 33.85 ± 20.70 h | Jss (steady-state flux) [1, 12]: 0.46 ± 0.22 µg/cm^2/h | P1 (apparent partition coefficient) [1, 12]: 10.40 ± 4.15 × 10^–4 cm | P2 (apparent diffusion coefficient) [1, 12]: 8.76 ± 0.55 × 10^–3 h^−1 | Permeation (cumulative amount of MTG permeated) [1, 12]: 10.27 ± 4.40 µg/cm^2 | tlag (lag time) [1, 12]: 19.07 ± 1.17 h | Jss (steady-state flux) [1, 13]: 0.44 ± 0.18 µg/cm^2/h | P1 (apparent partition coefficient) [1, 13]: 26.94 ± 23.48 × 10^–4 cm | P2 (apparent diffusion coefficient) [1, 13]: 4.29 ± 1.70 × 10^–3 h^−1 | Permeation (cumulative amount of MTG permeated) [1, 13]: 3.89 ± 1.41 µg/cm^2 | tlag (lag time) [1, 13]: 44.70 ± 22.17 h | Cumulative amount of MTG permeated ([1]; 5%w/v MTG in the rest of the solvents (other than DMSO), receptor PBS without ascorbic acid, 48 h): < 4 μg/cm^2 | Drug permeation ([1]; 5%w/v in Labrasol and Lauroglycol, optimised receptor medium): 1 – 4 μg/cm^2 | Mitragynine permeated ([1]; 5%w/v in Maisine and propylene glycol, optimised receptor medium): 6 – 8 µg/cm^2 | Mitragynine permeation [1, 14]: 10 – 15 µg/cm^2 | Skin fluxes [1, 14]: 0.5 – 0.8 µg/cm^2/h | MTG amount permeated with vs without ascorbic acid in receptor medium (times higher) ([1]; Transcutol-AA and Maisine-AA vs Transcutol and Maisine, 48 h): 3–4 times | Papp at 48 h, 5 %w/v [1, 4]: 0.00425 ×10⁻⁶ cm/s | Papp at 48 h, 5 %w/v [1, 5]: 0.00291 ×10⁻⁶ cm/s | Papp at 48 h, 5 %w/v [1, 6]: 0.000775 ×10⁻⁶ cm/s | Papp at 48 h, 5 %w/v [1, 7]: 0.000631 ×10⁻⁶ cm/s | Papp at 48 h, 5 %w/v [1, 8]: 0.00151 ×10⁻⁶ cm/s | Papp at 48 h, 5 %w/v [1, 10]: 0.00183 ×10⁻⁶ cm/s | Papp at 48 h, 5 %w/v [1, 11]: 0.00266 ×10⁻⁶ cm/s | Papp at 48 h, 5 %w/v [1, 12]: 0.00257 ×10⁻⁶ cm/s | Papp at 48 h, 5 %w/v [1, 13]: 0.00247 ×10⁻⁶ cm/s | Saturated solubility of MTG in PBS [2]: 77.10 ± 5.17 µg/mL | Oral bioavailability [3]: 69.6%

— PMC12507957 (Drug Delivery and Translational Research, 2025)
